Assay results from patent publication US20240082162A1, “PHARMACEUTICAL FORMULATIONS OF PILOCARPINE R-(+)-LIPOATE” (Cellix Bio Private Limited, priority 2020, published 2024).
pIC50: −log10 of the molar value. Where “and” joins values, the source holds several entries; their conditions need not be identical. Equal values may be shown once. Where a name gives a salt, the structure may show the parent alone.

System: A-253 human salivary gland cell line
Experiment: iROS assay (DCFH-DA), H2O2-induced oxidative stress in A-253 cells
Type: cell-based
Conditions: for iROS assay - normalised data vs H2O2 (single values) / iROS assay - normalised data vs H2O2, Average / iROS assay - normalized data (single values) / iROS assay - normalized data, Average: H2O2(1 mM), 24 hours; for iROS assay - normalised data vs H2O2 (single values) / iROS assay - normalised data vs H2O2, Average: H2O2 alone = 1; for iROS assay - normalized data (single values) / iROS assay - normalized data, Average: unstimulated cells = 1; for Effect on iROS induced by H2O2 (in words): A-253 cells, 3-1000 μM
Procedure: Objective: The objective of this study was to investigate the effect of the test compound (CLX 156), on H2O2-induced oxidative stress in human submaxillary gland (HSG) cell line; A-253 cell line, in comparison with pilocarpine hydrochloride. Method: A-253 human salivary gland cell line was cultured in McCoy's 5a Medium Modified (ATCC) with 10% HI-FBS according to manufacturer's guidelines at 37° C. in the presence of 5% CO 2 in a humified incubator. The cells were sub-cultured using Trypsin-EDTA and 10,000 cells seeded into each 48 well cell culture plates with a media volume of 500 μl. The cells were allowed to grow for 48 hours. After 48 hours of culture, the cells were pre-incubated for 1 hour with the positive, reference and test compounds at the desired concentrations (see table 1) followed by the addition of 1 mM H2O2 to the culture media (without the removal of test compounds) to induce oxidative stress. The incubation was continued for 24 hours. After 24 hours of treatment with H2O2, the cells were used to assess iROS as described below. This is a cell-based assay for measuring hydroxyl, peroxyl, or other reactive oxygen species activity within a cell. The assay employs the cell-permeable fluorogenic probe 2′, 7′-Dichlorodihydrofluorescin diacetate (DCFH-DA). In brief, DCFH-DA is diffused into cells and is deacetylated by cellular esterases to non-fluorescent 2′,7′-Dichlorodihydrofluorescin (DCFH), which is rapidly oxidized to highly fluorescent 2′,7′-Dichlorodihydrofluorescein (DCF) by ROS. The fluorescence intensity is proportional to the ROS levels within the cell cytosol. OxiSelect˜ Intracellular ROS Assay Kit was used according to the manufacturer's guidelines (Cell Biolabs). In short, at Day 3 the cells were washed several times with PBS and then treated with 1X DCFH-DA in media and incubated for 30-60 minutes. After DCFH-DA treatment, the oxidative stress was induced by adding 1 mM H2O2 and the fluorescence signals measured after 24 hours using a plate reader.

| SMILES | iROS assay - normalised data vs H2O2, Average (3 μM) | iROS assay - normalized data, Average (3 μM) | iROS assay - normalised data vs H2O2, Average (10 μM) | iROS assay - normalized data, Average (10 μM) | iROS assay - normalised data vs H2O2, Average (30 μM) | iROS assay - normalized data, Average (30 μM) | iROS assay - normalised data vs H2O2, Average (100 μM) | iROS assay - normalized data, Average (100 μM) | iROS assay - normalised data vs H2O2, Average (300 μM) | iROS assay - normalized data, Average (300 μM) | iROS assay - normalised data vs H2O2, Average (1000 μM) | iROS assay - normalized data, Average (1000 μM) | Effect on iROS induced by H2O2 (in words) | other results |
| --- | --- | --- | --- | --- | --- | --- | --- | --- | --- | --- | --- | --- | --- | --- |
| CC[C@@H]1C(=O)OC[C@@H]1Cc1cncn1C.O=C(O)CCCC[C@@H]1CCSS1 [CLX 156, Pilocarpine-R-(+)-lipoate] | 0.8035 | 6.0747 | 0.7206 | 5.4481 | 0.7536 | 5.6971 | 0.7541 | 5.7012 | 0.6581 | 4.9751 | 0.4638 | 3.5062 | significantly inhibited the iROS induced by H2O2 in A-253 cells in a concentration dependent manner | iROS assay - normalised data vs H2O2 (single values) (3 μM): 0.8216 and 0.8019 and 0.7870; iROS assay - normalized data (single values) (3 μM): 6.2116 and 6.0622 and 5.9502; iROS assay - normalised data vs H2O2 (single values) (10 μM): 0.7047 and 0.6981 and 0.7591; iROS assay - normalized data (single values) (10 μM): 5.3278 and 5.2780 and 5.7386; iROS assay - normalised data vs H2O2 (single values) (30 μM): 0.7294 and 0.7558 and 0.7755; iROS assay - normalized data (single values) (30 μM): 5.5145 and 5.7137 and 5.8631; iROS assay - normalised data vs H2O2 (single values) (100 μM): 0.7887 and 0.7377 and 0.7360; iROS assay - normalized data (single values) (100 μM): 5.9627 and 5.5768 and 5.5643; iROS assay - normalised data vs H2O2 (single values) (300 μM): 0.6224 and 0.6965 and 0.6553; iROS assay - normalized data (single values) (300 μM): 4.7054 and 5.2656 and 4.9544; iROS assay - normalised data vs H2O2 (single values) (1000 μM): 0.4676 and 0.4396 and 0.4841; iROS assay - normalized data (single values) (1000 μM): 3.5353 and 3.3237 and 3.6598; Inhibition of iROS compared with Pilocarpine HCL (in words) (A-253 salivary gland cell culture model): superior to Pilocarpine HCL in inhibiting the iROS induced by H2O2; pIC50 (H2O2-induced iROS in A-253 cells, read-out: IC50 for Intracellular ROS (iROS) inhibition): 3.26 |
| CC[C@@H]1C(=O)OC[C@@H]1Cc1cncn1C [Pilocarpine HCl, pilocarpine hydrochloride, reference compound] | 1.0401 | 7.8631 | 0.9018 | 6.8174 | 0.8952 | 6.7676 | 0.9226 | 6.9751 | 0.9265 | 7.0041 | 0.9040 | 6.8340 | comparatively less in magnitude and showed no clear dose response | iROS assay - normalised data vs H2O2 (single values) (3 μM, hydrochloride): 0.9995 and 1.0274 and 1.0933; iROS assay - normalized data (single values) (3 μM, hydrochloride): 7.5560 and 7.7676 and 8.2656; iROS assay - normalised data vs H2O2 (single values) (10 μM, hydrochloride): 0.8825 and 0.8760 and 0.9468; iROS assay - normalized data (single values) (10 μM, hydrochloride): 6.6722 and 6.6224 and 7.1577; iROS assay - normalised data vs H2O2 (single values) (30 μM, hydrochloride): 0.8941 and 0.8332 and 0.9583; iROS assay - normalized data (single values) (30 μM, hydrochloride): 6.7593 and 6.2988 and 7.2448; iROS assay - normalised data vs H2O2 (single values) (100 μM, hydrochloride): 0.9550 and 0.9336 and 0.8793; iROS assay - normalized data (single values) (100 μM, hydrochloride): 7.2199 and 7.0581 and 6.6473; iROS assay - normalised data vs H2O2 (single values) (300 μM, hydrochloride): 0.9040 and 0.8858 and 0.9896; iROS assay - normalized data (single values) (300 μM, hydrochloride): 6.8340 and 6.6971 and 7.4813; iROS assay - normalised data vs H2O2 (single values) (1000 μM, hydrochloride): 0.8924 and 0.8842 and 0.9352; iROS assay - normalized data (single values) (1000 μM, hydrochloride): 6.7469 and 6.6846 and 7.0705 |
